We go through three molecules from doi:10.1101/2025.04.10.648262, “Time-resolved phenotyping at subcellular resolution reveals shared principles and key trade-offs across antimicrobial peptide activities” (bioRxiv, 2026).

Where two headings read alike, the source gives them in different places. Bridge positions count the residues as written; N and C are the ends. Square brackets hold non-standard residues; d marks the D form. Peptide text beside a SMILES is read from it. Nspe = C[C@H](NCC(=O)O)c1ccccc1; Nlys = NCCCCNCC(=O)O

For experiment [1], the system named is CJW7753 cells in wide trenches. Briefly: Wide-trench microfluidics, growth inhibition of dense populations. It counts as cell-based, Escherichia coli. Particulars: 2X MIC in feeding channel, 37°C, M9gluCAAT with 0.08% Pluronic. The text has this: The design of the wide-trench microfluidics was adapted from the one reported by ([Lambert & Kussell, 2014]). As reported before ([Lin & Jacobs-Wagner, 2022]), the master mold was manufactured in the clean room of the School of Engineering and Applied Science at Yale University. UV photolithography (EVG 620 Mask Aligner) was applied on Si wafers with SU-8 photoresist to generate two layers of positive patterns. The lower layer contained the bacterial culture chambers (wide trenches) while the upper layer contained the large trench for the flowing culture medium. The large feeding region features a ~200 μm width and ~30 μm height. The wide trenches have a width of 7 μm, a depth of ~34–38 μm, and a height of 1.29 μm.
A solution of 9:1 polydimethylsiloxane (PDMS) and curing agent was mixed, degassed to remove air bubbles, poured onto the silicon wafer, and cured at 64.5°C for > 3 h. Note that the 9:1 PDMS:curing agent ratio was used instead of the standard 10:1 to reduce the hydrophobicity of the PDMS and mitigate hydrophobic interactions with AMPs. Once hardened, PDMS chips were cut out from the wafer, and a 1.2 mm biopsy punch was used to create inlet and outlet holes. The current chip design features two independent channels per chip. To allow for a higher temperature during PDMS-glass bonding, the glass bottom part of the dish was used during the following steps (without the plastic support glued to it). […]
To analyse wide-trench time-lapse images, drift correction was first performed using OmniSegger, followed by a custom Python script (drift_correction_wide_trenches.py) to correct for the slow residual drift that remained after the first correction step. The resulting drift-corrected timelapse data were analysed with the OmniSegger pipeline using the ribosome-fluorescence wide-trench Omnipose model described above, allowing cell segmentation and cell linking to be performed in the same general manner as for the PDMS-microwell experiments. […]

Experiment [2] relates to E. coli (MG1655). It counts as cell-based, Escherichia coli. Here is the method:
For all experiments and E. coli strains, cells were grown in a medium (M9gluCAAT) with M9 salts (33.7 mM Na2HPO4, 22mM KH2PO4, 8.55 mM NaCl, 9.35 mM NH4Cl), 0.2% (w/v) glucose, 0.4% (w/v) casamino acids, 1 mM MgSO4, 0.3 mM CaCl2, 1 μg/mL thiamine, and trace elements (13.4 mM ethylene-diamine-tetra-acetic-acid (EDTA), 3.1 mM FeCl3-6H2O, 0.62 mM ZnCl2, 76 μM CuCl2-2H2O, 42 μM CoCl2-2H2O, 162 μM H3BO3, 8.1 μM MnCl2-4H2O). Prior to every experiment, cells were first inoculated into M9gluCAAT and grown to stationary phase at 37°C. For all assays except the biofilm experiments, the culture was diluted to 1/10,000 or more in fresh medium and grown at 37°C until it reached an optical density at 600 nm (OD) of 0.2–0.4. For the biofilm experiments, cells were grown in M9gluCAAT supplemented with 100 μg/mL ampicillin to maintain the GFP-expressing plasmid. The overnight stationary-phase cultures were then diluted into the same medium to an OD of 0.015. See below for details on biofilm growth.
Except for the biofilm experiments, the strains used in this study were derived from MG1655 (ATCC 47076), which was used to estimate the minimum inhibitory concentration (MIC) for all the studied peptides (or peptoids) using a microplate reader (Figure 1A). To detect the timing of outer and inner membrane permeabilization to proteins, strain CJW7845 was constructed to carry two freely diffusing fluorescent proteins: mScarlet-I in the periplasm and mTagBFP2 in the cytoplasm. Construction of CJW7845 was done by transforming pBAD-mTagBFP2 plasmid (Addgene #34632, a gift from Vladislav Verkhusha; ([Subach et al., 2011])) into an E. coli strain expressing a periplasmic mScarlet-I reporter ([Cañas-Duarte 2021]), as previously described ([Chung et al., 1989]). Transformants were restreaked on fresh selection plates and confirmed via microscopy.
To determine the minimal inhibitory concentration (MIC) of the selected AMPs against either MG1655 or ATCC 25922 E. coli strains, exponentially growing cells were diluted in fresh medium to an OD = 10^−6 (~500 cells/mL) and mixed 50:50 with titrated AMP concentrations (which were chosen to be over a range that included the MIC) in a 96-well plate (flat bottom with low evaporation lid, 3595, Corning, Arizona, USA). A final OD of 5 × 10^−7 corresponds to ~250 cells/mL. OD curves were sampled every 5 min for a total of 48 h using a microplate reader (BioTek Synergy 2, Agilent Technologies Inc., California, USA). Raw data were exported as a text file and analysed using a custom-written Python script (microplate_reader_analysis.py). To measure maximum growth rates, the log(OD) was fitted using a linear regression over a 12-point moving window (60 min), which provides the instantaneous growth rate (log(OD)/h), from which the global maximum was computed. The MIC was defined as the minimum AMP concentration for which the maximum growth rate was < 0.2 log(OD)/h within the first 20 h of incubation. Each MIC experiment was performed independently at least three times (with at least two technical replicates each), and the mode across all replicates was taken as the final MIC; in the rare cases of a tie, an additional replicate was performed, which was sufficient to resolve it.

`C[C@@H](c1ccccc1)N(CC(N)=O)C(=O)CN(C(=O)CN(CCCCN)C(=O)CN(C(=O)CN(C(=O)CN(CCCCN)C(=O)CN(C(=O)CN(C(=O)CN(CCCCN)C(=O)CN(C(=O)CN(C(=O)CNCCCCN)[C@@H](C)c1ccccc1)[C@@H](C)c1ccccc1)[C@@H](C)c1ccccc1)[C@@H](C)c1ccccc1)[C@@H](C)c1ccccc1)[C@@H](C)c1ccccc1)[C@@H](C)c1ccccc1` [TM1] (H-[Nlys][Nspe][Nspe][Nlys][Nspe][Nspe][Nlys][Nspe][Nspe][Nlys][Nspe][Nspe]-NH2): the “Growth inhibition of dense cell population in wide trenches” value (“Growth inhibition” for short) in experiment [1] was “localized growth inhibition”. The “MIC (mode MIC)” value in experiment [2] (E. coli MG1655, M9gluCAAT, 37°C, 20 h, inoculum ~250 cells/mL, max growth rate < 0.2 log(OD)/h, mode across three biological replicates with two technical replicates each) is 2.5 µM.
Regarding `CC[C@@H](C)[C@@H](NC(=O)[C@@H](C)NC(=O)[C@@H](CCCNC(=N)N)NC(=O)[C@@H](Cc1c[nH]c2ccccc12)NC(=O)[C@@H](CCC(N)=O)NC(=O)[C@H](N)C(C)C)C(=O)N[C@H](CCCNC(=N)N)C(=O)N[C@@H](C(=O)N[C@H](CCCNC(=N)N)C(=O)N[C@@H](C(=O)N[C@@H](C(=O)N[C@H](CCCNC(=N)N)C(N)=O)[C@H](C)CC)C(C)C)C(C)C` [DJK-5] (H-[dV][dQ][dW][dR][dA][dI][dR][dV][dR][dV][dI][dR]-NH2; N-terminus and C-terminus assumed), the “Growth inhibition” value in experiment [1] is on record as “able to inhibit cell growth throughout the entire wide trenches”. The “MIC (mode MIC)” value in experiment [2] (MG1655, 20 h) is recorded as 2.5 µM.
With `CC[C@H](C)[C@@H]1NC(=O)CNC(=O)[C@H](CCCNC(=N)N)NC(=O)[C@H](Cc2ccc(O)cc2)NC(=O)[C@@H]2CSSC[C@H](NC1=O)C(=O)N[C@@H](Cc1ccc(O)cc1)C(=O)N[C@@H](CCCNC(=N)N)C(=O)N[C@@H](CCCNC(=N)N)C(=O)N[C@H](C(=O)N[C@@H](CCCNC(=N)N)C(N)=O)CSSC[C@H](NC(=O)[C@H](Cc1c[nH]c3ccccc13)NC(=O)[C@@H](N)CCCCN)C(=O)N[C@@H](Cc1ccccc1)C(=O)N[C@@H](CCCNC(=N)N)C(=O)N[C@@H](C(C)C)C(=O)N2` [Tac1, tachyplesin-1] (H-KWCFRVCYRGICYRRCR-NH2; disulfide 3-16, 7-12 (inferred); N-terminus assumed), the “Growth inhibition” value in experiment [1] was “primarily inhibited the growth of cells near the top of the trenches”. The “MIC (mode MIC)” value in experiment [2] (MG1655, 20 h) is 0.6 µM.
